In patent US20250195513A1, “DEGRADATION OF IRAK4 BY CONJUGATION OF IRAK4 INHIBITORS WITH E3 LIGASE LIGAND AND METHODS OF USE” (BeiGene, Ltd., priority 2022, published 2025):

How the values were obtained:
[1] = molecular target: T1, IRAK4 (Homo sapiens, UniProt Q9NWZ3); assay: IRAK4 Degradation Assay (Karpas299, HTRF/TR-FRET); format: cell-based
T1 construct: endogenous in cells; host or cells: Karpas299
T1 sequence (Q9NWZ3 1-460): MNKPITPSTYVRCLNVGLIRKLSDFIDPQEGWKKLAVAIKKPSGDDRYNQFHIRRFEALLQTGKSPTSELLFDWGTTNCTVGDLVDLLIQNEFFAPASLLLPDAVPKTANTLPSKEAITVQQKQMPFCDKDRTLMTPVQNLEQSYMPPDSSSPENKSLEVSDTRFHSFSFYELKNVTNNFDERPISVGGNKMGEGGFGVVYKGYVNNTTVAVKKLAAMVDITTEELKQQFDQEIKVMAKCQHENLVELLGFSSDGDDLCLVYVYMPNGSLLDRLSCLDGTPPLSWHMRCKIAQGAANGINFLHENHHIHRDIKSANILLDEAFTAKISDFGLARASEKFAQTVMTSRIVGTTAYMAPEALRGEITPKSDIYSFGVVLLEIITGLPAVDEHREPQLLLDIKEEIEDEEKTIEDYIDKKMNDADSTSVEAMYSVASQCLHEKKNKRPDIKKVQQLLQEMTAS
How it was run: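 Compound potency as DC50 (IC50) came from four-parameter fits of percent IRAK4 degradation. IRAK4 was measured by HTRF (665/620 nm) in lysates of Karpas299 cells seeded at 0.2 million per well. Cells had been treated with compound dilutions for 5 or 24 h.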

[2] = molecular target: T1, IRAK4; assay: IRAK4 Degradation Assay with Human Serum (Karpas299, HTRF/TR-FRET); format: cell-based; conditions: Karpas-299 in human serum, 24 hrs treatment; for DC50: read-out: IRAK4 degradtion with human serum assay DC50; for Dmax: read-out: IRAK4 degradtion with human serum assay Dmax (%)
Experimental: IRAK4 degradation was measured using a TR-FRET-based method (Degorce, François, et al. Current chemical genomics. 2009, 3: 22). Karpas299 resuspended in Human serum AB (GEMINI, 100-512) were seeded into 96-well plates at the density of 0.2 million cells per well and then treated with a series dilution of compounds. After 24 hrs treatment, cells were pelleted via centrifugation and washed with PBS, add 40 μL lysis buffer (Cisbio) to each well after removal of the supernatant. Plates were then incubated at room temperature with shaking for 30 minutes. A total of 16 μL of cell lysates from each well of a 96-well plate was transferred to a 384-well white assay plate. IRAK4 level was quantitated using the HTRF kit as described by the manufacturer manual (Cisbio). FRET signals were measured using a PHERAstar FSX reader (BMG Labtech).
After treatment, add HTRF lysis buffer to each well; seal the plate and incubate 1 hour at room temperature on a plate shaker; Once the cells are lysed, 16 μL of cell lysate are transferred to a PE 384-well HTRF detection plate; 4 μL of pre-mixed HTRF antibodies are added to each well; Cover the plate with a plate sealer, spin 1000 rpm for 1 min, Incubate overnight at room temperature; Read on BMG PheraStar with HTRF protocol (337 nm-665 nm-620 nm).
The inhibition (degradation) percentage of the compound was calculated by the following equation: […]
The IC50 (DC50) value of a compound can be obtained by fitting the following equation
Wherein, X and Y are known values, and IC50, Hillslope, Top and Bottom are the parameters obtained by fitting with software. Y is the inhibition percentage (calculated from the equation), X is the concentration of the compound; IC50 is the concentration of the compound when the […] is reached. The smaller the IC50 value is, the stronger the inhibitory ability of the compound is. Vice versa, the higher the IC50 value is, the weaker the ability the inhibitory ability of the compound is; Hillslope represents the slope of the fitted curve, generally around 1 *; Bottom represents the minimum value of the curve obtained by data fitting, which is generally 0%±20%; Top represents the maximum value of the curve obtained by data fitting, which is generally 100%±20%. The experimental data were fitted by calculating and analyzing with Dotmatics data analysis software.

[3] = Karpas-299 cells, 5 h treatment, maximum percentage of degradation, read-out: IRAK4 in Karpas-299 (5 h) Dmax (%)
[4] = Karpas-299 cells, 5 h treatment, read-out: IRAK4 in Karpas-299 (5 h) DC50
[5] = Karpas-299 cells, 24 h treatment, maximum percentage of degradation, read-out: IRAK4 in Karpas-299 (24 h) Dmax (%)
[6] = Karpas-299 cells, 24 h treatment, read-out: IRAK4 in Karpas-299 (24 h) DC50

SMILES | Dmax [1, 5] [%] | DC50 [1, 6] [nM] | DC50 [2] [nM] | other results
O=C1CCN(c2c(F)cc(N3CC(C(=O)N4CCN([C@H]5CC[C@H](n6cc(NC(=O)c7coc(-c8ccnc(NCC(F)(F)F)c8)n7)c(C(F)F)n6)CC5)CC4)C3)cc2F)C(=O)N1 [Example 76, N-(3-(difluoromethyl)-1-((1r,4r)-4-(4-(1-(4-(2,4-dioxotetrahydropyrimidin-1(2H)-yl)-3,5-difluorophenyl)azetidine-3-carbonyl)piperazin-1-yl)cyclohexyl)-1H-pyrazol-4-yl)-2-(2-((2,2,2-trifluoroethyl)amino)pyridin-4-yl)oxazole-4-carboxamide] | 97 | 3.2 | – | –
CC(C)(O)c1cc2nn([C@H]3CC[C@H](CN4CCN(C5CN(c6cc(F)c([C@H]7CCC(=O)NC7=O)c(F)c6)C5)CC4)CC3)cc2cc1NC(=O)c1csc(-c2cn[nH]c2)n1 [Example 433, N-(2-((1r,4r)-4-((4-(1-(4-((R)-2,6-dioxopiperidin-3-yl)-3,5-difluorophenyl)azetidin-3-yl)piperazin-1-yl)methyl)cyclohexyl)-6-(2-hydroxypropan-2-yl)-2H-indazol-5-yl)-2-(1H-pyrazol-4-yl)thiazole-4-carboxamide] | 99 | 0.2 | – | –
O=C1CCN(c2ccc(N3CCC(N4CCN(C[C@H]5CC[C@H](n6cc(NC(=O)c7coc(-c8ccnc(NCC(F)(F)F)c8)n7)c(C(F)F)n6)CC5)CC4)CC3)cc2)C(=O)N1 [Example 2, N-(3-(difluoromethyl)-1-((1r,4r)-4-((4-(1-(4-(2,4-dioxotetrahydropyrimidin-1(2H)-yl)phenyl)piperidin-4-yl)piperazin-1-yl)methyl)cyclohexyl)-1H-pyrazol-4-yl)-2-(2-((2,2,2-trifluoroethyl)amino)pyridin-4-yl)oxazole-4-carboxamide] | 6.5 | > 10000 | – | DC50 ([1]; Degradation (Karpas-299), comparison table, Linker Type A, read-out: Compound (Linker Type A) DC50): > 10000 nM; Dmax ([1]; Degradation (Karpas-299), comparison table, Linker Type A, read-out: Compound (Linker Type A) Dmax (%)): 6.5%
O=C1CC[C@H](c2c(F)cc(N3CC(C(=O)N4CCN([C@H]5CC[C@H](n6cc(NC(=O)c7coc(-c8ccnc(NCC9CC9)c8)n7)c(C(F)F)n6)CC5)CC4)C3)cc2F)C(=O)N1 [Example 25, 2-(2-((cyclopropylmethyl)amino)pyridin-4-yl)-N-(3-(difluoromethyl)-1-((1r,4r)-4-(4-(1-(4-((R)-2,6-dioxopiperidin-3-yl)-3,5-difluorophenyl)azetidine-3-carbonyl)piperazin-1-yl)cyclohexyl)-1H-pyrazol-4-yl)oxazole-4-carboxamide] | 99 | 2.5 | – | –
COc1cc2nn(C3CCN(C4CN(C(=O)[C@@H]5CCN(c6cc(F)c([C@H]7CCC(=O)NC7=O)c(F)c6)C5)C4)CC3)cc2cc1NC(=O)c1cccc(C(F)(F)F)n1 [Example 42, N-(2-(1-(1-((R)-1-(4-((R)-2,6-dioxopiperidin-3-yl)-3,5-difluorophenyl)pyrrolidine-3-carbonyl)azetidin-3-yl)piperidin-4-yl)-6-methoxy-2H-indazol-5-yl)-6-(trifluoromethyl)picolinamide] | 95 | 2.2 | – | Dmax [1, 3]: 83%; DC50 [1, 4]: 4.9 nM
[2H]C([2H])([2H])Oc1cc2nn([C@H]3CC[C@H](N4CCN(C(=O)[C@@H]5CCN(c6cc(F)c(N7CCC(=O)NC7=O)c(F)c6)C5)CC4)CC3)cc2cc1NC(=O)c1cccc(C(F)(F)F)n1 [Example 174, N-(2-((1R,4r)-4-(4-((R)-1-(4-(2,4-dioxotetrahydropyrimidin-1(2H)-yl)-3,5-difluorophenyl)pyrrolidine-3-carbonyl)piperazin-1-yl)cyclohexyl)-6-(methoxy-d3)-2H-indazol-5-yl)-6-(trifluoromethyl)picolinamide] | 97 | 7.7 | – | –
O=C1CC[C@H](c2c(F)cc(N3CC(C(=O)N4CCN([C@H]5CC[C@H](n6cc7cc(NC(=O)c8cccc(C(F)(F)F)n8)c(C(=O)N[C@H]8C[C@H](CO)C8)cc7n6)CC5)CC4)C3)cc2F)C(=O)N1 [Example 167, 2-((1r,4R)-4-(4-(1-(4-((R)-2,6-dioxopiperidin-3-yl)-3,5-difluorophenyl)azetidine-3-carbonyl)piperazin-1-yl)cyclohexyl)-N-((1r,3R)-3-(hydroxymethyl)cyclobutyl)-5-(6-(trifluoromethyl)picolinamido)-2H-indazole-6-carboxamide] | 99 | 0.8 | – | Dmax [1, 3]: 94%; DC50 [1, 4]: 5.3 nM

Now from value to molecule, other results behind:

Dmax [1, 5] [%] | DC50 [1, 6] [nM] | DC50 [2] [nM] | SMILES | other results
97 | 1.2 | 7.8 | CC(C)(O)c1cc2nn([C@H]3CC[C@H](N4CCN(C(=O)C5CN(c6ccc(C7CCC(=O)NC7=O)nc6)C5)CC4)CC3)cc2cc1NC(=O)c1ccc2cc(C#N)cnn12 (some centres unmarked) [Example 255, 3-cyano-N-(2-((1r,4r)-4-(4-(1-(6-(2,6-dioxopiperidin-3-yl)pyridin-3-yl)azetidine-3-carbonyl)piperazin-1-yl)cyclohexyl)-6-(2-hydroxypropan-2-yl)-2H-indazol-5-yl)pyrrolo[1,2-b]pyridazine-7-carboxamide] | Dmax [1, 3]: 96%; DC50 [1, 4]: 2.7 nM; Dmax [2]: 96%
95 | 1.9 | 14 | CC(C)(O)c1cc2nn([C@H]3CC[C@H](N4CCN(C[C@H]5CCN(c6ccc7c(c6)C(=O)N(C6CCC(=O)NC6=O)C7=O)C5)CC4)CC3)cc2cc1NC(=O)c1ccc2cc(C#N)cnn12 (stereo partly drawn) [Example 432, 3-cyano-N-(2-((1R,4r)-4-(4-(((3R)-1-(2-(2,6-dioxopiperidin-3-yl)-1,3-dioxoisoindolin-5-yl)pyrrolidin-3-yl)methyl)piperazin-1-yl)cyclohexyl)-6-(2-hydroxypropan-2-yl)-2H-indazol-5-yl)pyrrolo[1,2-b]pyridazine-7-carboxamide] | Dmax [2]: 92%
– | 0.8 | 19 | CC(C)(O)c1cc2nn([C@H]3C[C@H](N4CCN(C(=O)[C@@H]5CCN(c6cc(F)c([C@H]7CCC(=O)NC7=O)c(F)c6)C5)CC4)C3)cc2cc1NC(=O)c1ccc2cc(C#N)cnn12 [Example 329, 3-cyano-N-(2-((1R,3r)-3-(4-((R)-1-(4-((R)-2,6-dioxopiperidin-3-yl)-3,5-difluorophenyl)pyrrolidine-3-carbonyl)piperazin-1-yl)cyclobutyl)-6-(2-hydroxypropan-2-yl)-2H-indazol-5-yl)pyrrolo[1,2-b]pyridazine-7-carboxamide] | IRAK4 in Karpas-299 (24 h) Dmax (%) ([1]; Karpas-299 cells, 24 h treatment, maximum percentage of degradation): 96%; IRAK4 degradtion with human serum assay Dmax (%) [2]: 98%
97 | 0.6 | 48 | CC(C)(O)c1cc2nn([C@H]3CC[C@H](N4CCN(C(=O)C5CCN(c6cc(F)c([C@H]7CCC(=O)NC7=O)c(F)c6)CC5)CC4)CC3)cc2cc1NC(=O)c1ccc2cc(C#N)cnn12 [Example 291] | Dmax [2]: 97%
